Consider one substance from US8178506B2, “Oligomeric compounds and compositions for use in modulation of small non-coding RNAs” (Regulus Therapeutics Inc., priority 2003, dated 2012).

One series has as its system BJ cells. Description: Cell cycle assay in BJ cells. Format: cell-based, human. As to conditions: 200 nM, 48 hours, relative to untreated control.
In a further series the test system is B16-F10 cells. Briefly: Cell cycle assay in B16-F10 cells. As to conditions: 150 nM, 48 hours, relative to untreated control. In kind it is cell-based, mouse.

In the oligonucleotide strings, read from the 5' end, every base follows the letter of its sugar. An asterisk marks phosphorothioate; unmarked linkages are phosphodiester. Other units and linkages are bracketed, terminal groups are in braces. A string of capitals states the bases alone. e = 2'-O-(2-methoxyethyl) (MOE); [5mC] = 5-methylcytosine; d = 2'-deoxy (DNA)

For “328403 (antisense eA*eG*eG*e[5mC]*e[5mC]*dT*dA*dT*dT*d[5mC]*d[5mC]*dT*dG*dT*dA*eG*e[5mC]*eA*eA*eA) [compound 328403]”, in the series with BJ cells, the “% cells in cell cycle phase G1” value worked out at 102%, the “% cells in cell cycle phase G2/M” value was determined as 92%, the “% cells in cell cycle phase S” value is recorded as 95% and the “% cells in cell cycle phase aneuploid” value worked out at 114%. In the series with BJ cells, the “% cells in cell cycle phase subG1” value came to 81%. Also, in the series with B16-F10 cells, the “% cells in cell cycle phase G1” value is on record as 111%, the “% cells in cell cycle phase G2/M” value is given as 99%, the “% cells in cell cycle phase S” value worked out at 88% and the “% cells in cell cycle phase aneuploid” value came out at 92%. Besides, in the series on B16-F10 cells, the “% cells in cell cycle phase subG1” value amounted to 112%.
